This data set is described as follows: xn = mol fraction of the nth substance listed. As to conditions: 298.15 K, 101 kPa, Liquid, Vibrating tube method.

Numbers after ± are expanded uncertainties.

The mass density is the mass of a sample divided by its volume.

As to `CCO` [ethanol] + CC1(C)[C@@H]2CC[C@@]1(CS(=O)(=O)O)C(=O)C2, where the note is “x2 = 0”, the mass density is 785.026 ± 0.15 kg/m3.
`CC1(C)[C@@H]2CC[C@@]1(CS(=O)(=O)O)C(=O)C2` [(1S)-(+)-10-camphorsulfonic acid] + CCO: the mass density (x1 = 0.001067) is recorded as 787.039 ± 0.15 kg/m3, the mass density (x1 = 0.001496) is given as 787.971 ± 0.15 kg/m3 and the mass density (x1 = 0.002271) is recorded as 789.368 ± 0.15 kg/m3.
`CCO` [ethanol] + CC1(C)[C@@H]2CC[C@@]1(C)C(=O)C2=O: under “x2 = 0”, the mass density was 785.025 ± 0.15 kg/m3.
Still for that read-out and setting: to `CCO` [ethanol] + CC1(C)[C@H]2CC[C@]1(C)C(=O)C2 belongs 785.056 ± 0.15 kg/m3.
Still for that read-out and setting: as for `CCO` [ethanol] + CC1(C)[C@@H]2CC[C@@]1(CS(N)(=O)=O)C(=O)C2, the figure is 785.013 ± 0.15 kg/m3; as for `CCO` [ethanol] + CC1(C)C2CCC1(CS(=O)(=O)Cl)C(=O)C2, 785.033 ± 0.15 kg/m3.
`CC1(C)C2CCC1(CS(=O)(=O)Cl)C(=O)C2` (stereo not drawn) [d-10-camphorsulfonyl chloride] + CCO: the mass density is 786.327 ± 0.15 kg/m3 (x1 = 0.0006848), 787.552 ± 0.15 kg/m3 (x1 = 0.001385) and 788.887 ± 0.15 kg/m3 (x1 = 0.002039).
Consider `CCO` [ethanol] + CC1(C)[C@@H]2CC[C@@]1(C)C(=O)C2, for which, for the setting “x2 = 0”, the mass density was found to be 785.055 ± 0.15 kg/m3.
On the same count and under the same terms, to `CCO` [ethanol] + CC1(C)[C@H]2CC[C@]1(CS(=O)(=O)O)C(=O)C2 belongs 785.024 ± 0.15 kg/m3.
Take `CC1(C)[C@H]2CC[C@]1(CS(=O)(=O)O)C(=O)C2` [(1R)-(-)-10-camphorsulfonic acid] + CCO: the mass density (x1 = 0.001067) was found to be 787.036 ± 0.15 kg/m3, the mass density (x1 = 0.001496) is on record as 787.969 ± 0.15 kg/m3 and the mass density (x1 = 0.002271) came out at 789.366 ± 0.15 kg/m3.
For the compound `CC1(C)[C@@H]2CC[C@@]1(CS(N)(=O)=O)C(=O)C2` [(1S)-(+)-10-camphorsulfonamide] + CCO, the mass density (x1 = 9.665e-05) was found to be 785.188 ± 0.15 kg/m3, the mass density (x1 = 0.001502) is 787.624 ± 0.15 kg/m3 and the mass density (x1 = 0.002013) came out at 788.405 ± 0.15 kg/m3.
As for `CC1(C)[C@@H]2CC[C@@]1(C)C(=O)C2` [d-camphor] + CCO, the mass density runs as follows: (x1 = 0.001613) 786.229 ± 0.15 kg/m3; (x1 = 0.003055) 786.827 ± 0.15 kg/m3; (x1 = 0.009161) 788.887 ± 0.15 kg/m3; (x1 = 0.01574) 789.421 ± 0.15 kg/m3.
Turning to `CCO` [ethanol] + CC1(C)[C@H]2CC[C@]1(CS(=O)(=O)Cl)C(=O)C2, the mass density (x2 = 0) stood at 785.035 ± 0.15 kg/m3.
For the compound `CC1(C)[C@H]2CC[C@]1(CS(=O)(=O)Cl)C(=O)C2` [(1R)-(-)-10-camphorsulfonyl chloride] + CCO, the mass density reads like this: (x1 = 0.0006848) 786.329 ± 0.15 kg/m3; (x1 = 0.001385) 787.654 ± 0.15 kg/m3; (x1 = 0.002039) 788.885 ± 0.15 kg/m3.
Regarding `CC1(C)[C@@H]2CC[C@@]1(C)C(=O)C2=O` [(-)-camphorquinone] + CCO, the mass density came out at 786.235 ± 0.15 kg/m3 (x1 = 0.001389), 786.827 ± 0.15 kg/m3 (x1 = 0.00209) and 787.379 ± 0.15 kg/m3 (x1 = 0.002792).
Take `CC1(C)[C@H]2CC[C@]1(C)C(=O)C2` [(1S)-1,7,7-trimethylbicyclo[2.2.1]heptan-2-one] + CCO: the mass density runs as follows: (x1 = 0.001613) 786.229 ± 0.15 kg/m3; (x1 = 0.003055) 786.828 ± 0.15 kg/m3; (x1 = 0.009161) 788.869 ± 0.15 kg/m3; (x1 = 0.01574) 789.42 ± 0.15 kg/m3.
On to `CC1(C)[C@H]2CC[C@]1(C)C(=O)C2=O` [(+)-camphorquinone] + CCO, for which the mass density (x1 = 0.001389) is recorded as 786.234 ± 0.15 kg/m3, the mass density (x1 = 0.00209) came to 786.827 ± 0.15 kg/m3 and the mass density (x1 = 0.002792) was 787.377 ± 0.15 kg/m3.
Turning to `CCO` [ethanol] + CC1(C)[C@H]2CC[C@]1(C)C(=O)C2=O, where the note is “x2 = 0”, the mass density is reported as 785.022 ± 0.15 kg/m3.

The values above are taken from the NIST ThermoML archive (doi:10.1016/j.jct.2009.05.005).
